Test results published in patent US6475479B1, “Terpenes for reducing the effect of pheromone on lepidoptera” (BASF Aktiengesellschaft, priority 1995, dated 2002).

Key:
[1] = tested on: Lobesia males; assay: Laboratory wind tunnel preference test with pheromone-lured electric traps; type: in vivo; settings: cartridges with 30 μl E7,Z9-dodecadien-1-yl acetate 10^-4 g/g silicone oil plus citral 10^-1 g/g silicone oil, relative to standard (pheromone alone) set equal to one
Excerpt: Laboratory Wind Tunnel 4 electric traps up to […] in size were installed in a laboratory wind tunnel. As electric traps, commercially available electric insect capture appliances were rebuilt to give recording lure traps. The fluorescent tube normally responsible for the attractant action was replaced by a scent source. To avoid positional effects, the four traps were […]. The wheel rim was rotated by means of a motor having a speed of two revolutions per hour (once around its own axis and back), so that the traps continuously changed position. […] The number of moths trapped in each case was determined daily. By means of the number of moths trapped in the individual traps, the attractiveness of the particular lure was determined (preference test). The influence of various dilutions of E7,Z9-dodecadien-1-yl acetate was determined by setting the number of moths in the most common trap equal to one; the capturing ability of the other traps was calculated relative to this. […] The recapture rate of the standard was set equal to one and that of the traps with the terpene additive was calculated relative to this.

[2] = tested on: Lobesia males; assay: Outdoor wind tunnels over vine rows, simulated mating disruption; type: in vivo
Excerpt: In spring 1994 two outdoor wind tunnels were built over a row of vines in each case in an experimental field of the SLFA Neustadt. These were aluminum scaffoldings 2 m high, 2 m wide and 10 m long.
The front and back were covered with mosquito nets made of cotton (mesh width 1.5×1.5 mm); 50μ thick polyethylene film lay over the entire length.
Air was blown into the interior through a ventilator at the front of the tunnel.
Two traps each were attached at a height of approximately 60 cm in the interior of the two wind tunnels on the ventilator side. The traps were lured with E7,Z9-dodecadien-1-yl acetate. Tunnel 1 remained untreated and served as a control. To simulate a mating disruption situation, 10 filter papers were uniformly distributed at various heights (20-120 cm) in tunnel 2 along the row of grapevines. 1 ml of citral solution in silicone oil with a dilution of 10^−1 g/g was in each case added dropwise to these in order to achieve a uniform concentration of the substance in the interior. A specific number of Lobesia males were in each case set free on the sides of the two wind tunnels opposite to the ventilator sides. After the end of the experiment, the Lobesia males captured in the traps were counted and the recapture rate was determined.

SMILES: CC(C)=CCCC(C)=CC=O [citral]
- inhibition of the recapture rate [1]: 90%
- Recapture rate ([2]; ratio of captured to released Lobesia males, traps lured with E7,Z9-dodecadien-1-yl acetate, 10 filter papers each with 1 ml citral solution 10^-1 g/g in silicone oil in the tunnel): 0.01
- inhibition of the recapture rate ([2]; tunnel 2 (citral, 10 filter papers, 1 ml of 10^-1 g/g in silicone oil) versus untreated control tunnel 1): 94.5%
